Test results: PMC7587356, “High-Throughput Screening for Inhibitors of the SARS-CoV-2 Protease Using a FRET-Biosensor” (Molecules, 2020)
Structures can show the parent of a compound that is named as a salt. Where two headings read alike, the source gives them in different places.

Target: SARS-CoV-2 3CLpro (Severe acute respiratory syndrome coronavirus 2, UniProt P0DTD1)
Assay: biochemical
Type: biochemical
Parameters: Replicate_1 / Replicate_2 / mean / mean (LOPAC_screen_w_protease): unit not given here
Settings: for inhibition at 5 µM: 4 h
[1] = read-out: Replicate_1 (LOPAC_screen_w_protease)
[2] = read-out: Replicate_2 (LOPAC_screen_w_protease)
[3] = sheet LOPAC_screen_w_protease, primary screen of LOPAC1280 at 5 µM with protease, mean of the two replicates, read-out: mean
[4] = sheet LOPAC_screen_w_protease, primary screen of LOPAC1280 at 5 µM with protease, replicate 1, read-out: Replicate_1
[5] = sheet LOPAC_screen_w_protease, primary screen of LOPAC1280 at 5 µM with protease, replicate 2, read-out: Replicate_2
[6] = sheet LOPAC_screen_w_protease, LOPAC1280 primary screen with protease, 5 µM compound, mean of the two replicates
[7] = sheet LOPAC_screen_w_protease, LOPAC1280 primary screen with protease, 5 µM compound, replicate 1
[8] = sheet LOPAC_screen_w_protease, LOPAC1280 primary screen with protease, 5 µM compound, replicate 2
[9] = sheet LOPAC_screen_w_protease, LOPAC1280 primary screen at 5 µM, with protease, mean of the two replicates
[10] = sheet LOPAC_screen_w_protease, LOPAC1280 primary screen at 5 µM, with protease, replicate 1
[11] = sheet LOPAC_screen_w_protease, LOPAC1280 primary screen at 5 µM, with protease, replicate 2
[12] = LOPAC1280 primary screen with protease, 5 µM compound, replicate 1, read-out: Replicate_1 (LOPAC_screen_w_protease)
[13] = LOPAC1280 primary screen with protease, 5 µM compound, replicate 2, read-out: Replicate_2 (LOPAC_screen_w_protease)
[14] = LOPAC1280 primary screen with protease, 5 µM compound, mean of two replicates
[15] = sheet LOPAC_screen_w_protease, primary screen at 5 µM, mean of two replicates
[16] = sheet LOPAC_screen_w_protease, primary screen at 5 µM, replicate 1
[17] = sheet LOPAC_screen_w_protease, primary screen at 5 µM, replicate 2
[18] = sheet LOPAC_screen_w_protease, LOPAC1280 primary screen with protease, 5 µM compound, mean of the two replicates, read-out: mean
[19] = sheet LOPAC_screen_w_protease, LOPAC1280 primary screen with protease, 5 µM compound, replicate 1, read-out: Replicate_1
[20] = sheet LOPAC_screen_w_protease, LOPAC1280 primary screen with protease, 5 µM compound, replicate 2, read-out: Replicate_2
[21] = sheet LOPAC_screen_w_protease, primary screen with protease, compound at 5 µM, mean of two replicates
[22] = sheet LOPAC_screen_w_protease, primary screen with protease, compound at 5 µM, replicate 1
[23] = sheet LOPAC_screen_w_protease, primary screen with protease, compound at 5 µM, replicate 2
[24] = sheet LOPAC_screen_w_protease, primary screen with protease, mean of two replicates
[25] = sheet LOPAC_screen_w_protease, primary screen with protease, replicate 1
[26] = sheet LOPAC_screen_w_protease, primary screen with protease, replicate 2
[27] = sheet LOPAC_screen_w_protease, primary screen with protease, mean of two replicates, read-out: mean
[28] = sheet LOPAC_screen_w_protease, primary screen with protease, replicate 1, read-out: Replicate_1
[29] = sheet LOPAC_screen_w_protease, primary screen with protease, replicate 2, read-out: Replicate_2

Cn1cnc([N+](=O)[O-])c1Sc1ncnc2nc[nH]c12 [Azathioprine]
mean (LOPAC_screen_w_protease): 1.638
inhibition at 5 µM [1]: 1.71%
inhibition at 5 µM [2]: 1.57%

CNC(=O)Oc1ccc2c(c1)[C@]1(C)CCN(C)[C@@H]1N2C [(-)-Physostigmine]
inhibition at 5 µM [3]: 3.4%
inhibition at 5 µM [4]: 5.4%
inhibition at 5 µM [5]: 1.4%

CC1Cc2cc3c(cc2C(c2ccc(N)cc2)=NN1)OCO3.Cl (stereo not drawn) [GYKI 52895]
mean [6]: 5.365
Replicate_1 [7]: 5.021
Replicate_2 [8]: 5.7079

CS(=O)(=O)O.Cn1cc(C(F)(F)F)nc1-c1ccc(OCC(O)CNCCOc2ccc(O)c(C(N)=O)c2)cc1 (stereo not drawn) [CGP 20712A methanesulfonate]
mean [9]: 0.4402
Replicate_1 [10]: 1.402
Replicate_2 [11]: -0.5212

Clc1ccc2c(c1)C(N1CCNCC1)=Nc1ccccc1O2 [Amoxapine]
inhibition at 5 µM [3]: 3.27%
inhibition at 5 µM [4]: 3.65%
inhibition at 5 µM [5]: 2.89%

Nc1nnc(-c2cccc(Cl)c2Cl)c(N)n1 [Lamotrigine]
inhibition at 5 µM [12]: 1.42%
inhibition at 5 µM [13]: 1.78%
mean (LOPAC_screen_w_protease) [14]: 1.603

Br.NC1CCc2cc(O)c(O)cc2C1 (stereo not drawn) [6,7-ADTN hydrobromide]
mean (LOPAC screen with protease) [15]: 64.0916
Replicate_1 (LOPAC screen with protease) [16]: 63.1732
Replicate_2 (LOPAC screen with protease) [17]: 65.0099

NCCCCNCCCN [Spermidine trihydrochloride]
inhibition at 5 µM [18]: 4.14%
inhibition at 5 µM [19]: 3.25%
inhibition at 5 µM [20]: 5.03%

N#CC(C#N)=Cc1cc(O)c(O)c(O)c1 [Tyrphostin 25]
inhibition at 5 µM (sheet LOPAC_screen_w_protease, primary screen at 5 µM, mean of two replicates, read-out: mean (LOPAC screen with protease)): 8.52%
inhibition at 5 µM (sheet LOPAC_screen_w_protease, primary screen at 5 µM, replicate 1, read-out: Replicate_1 (LOPAC screen with protease)): 10.5%
inhibition at 5 µM (sheet LOPAC_screen_w_protease, primary screen at 5 µM, replicate 2, read-out: Replicate_2 (LOPAC screen with protease)): 6.57%

O=[N+]([O-])c1ccc(CSc2ncnc3c2ncn3[C@@H]2O[C@H](CO)[C@@H](O)[C@H]2O)cc1 [S-(4-Nitrobenzyl)-6-thioinosine]
mean [6]: 4.84
Replicate_1 [7]: 5.452
Replicate_2 [8]: 4.228

O=[N+]([O-])c1cccc2cn[nH]c12 [7-Nitroindazole]
inhibition at 5 µM (sheet LOPAC_screen_w_protease, primary screen with protease, compound at 5 µM, mean of two replicates, read-out: mean): 3.04%
inhibition at 5 µM (sheet LOPAC_screen_w_protease, primary screen with protease, compound at 5 µM, replicate 1, read-out: Replicate_1): 2.19%
inhibition at 5 µM (sheet LOPAC_screen_w_protease, primary screen with protease, compound at 5 µM, replicate 2, read-out: Replicate_2): 3.89%

C=CC(N)CCC(=O)O (racemic) [(±)-gamma-Vinyl GABA]
mean (sheet LOPAC_screen_w_protease, primary screen with protease, 5 µM, mean of two replicates): -0.2228
Replicate_1 (sheet LOPAC_screen_w_protease, primary screen with protease, 5 µM, replicate 1): -0.2758
Replicate_2 (sheet LOPAC_screen_w_protease, primary screen with protease, 5 µM, replicate 2): -0.1698

CCCCCCCCCCCCCCCCCCNC(=O)OCC(COP(=O)([O-])OCC[n+]1ccsc1)OC (stereo not drawn) [CV-3988]
mean (LOPAC_screen_w_protease) [14]: 1.326
Replicate_1 (LOPAC_screen_w_protease) (LOPAC1280 primary screen with protease, 5 µM compound, replicate 1): -0.07699
Replicate_2 (LOPAC_screen_w_protease) (LOPAC1280 primary screen with protease, 5 µM compound, replicate 2): 2.73

COc1nc(C)nc(Cl)c1NC1=NCCN1.Cl [Moxonidine hydrochloride]
mean (sheet LOPAC_screen_w_protease, primary screen of LOPAC1280 at 5 µM with protease, mean of the two replicates): 3.905
Replicate_1 (sheet LOPAC_screen_w_protease, primary screen of LOPAC1280 at 5 µM with protease, replicate 1): 2.314
Replicate_2 (sheet LOPAC_screen_w_protease, primary screen of LOPAC1280 at 5 µM with protease, replicate 2): 5.497

c1ccc2c(c1)[I+]c1ccccc1-2 [Diphenyleneiodonium chloride]
inhibition at 5 µM (read-out: Replicate_1): 3.49%
inhibition at 5 µM (read-out: Replicate_2): 2.49%
inhibition at 5 µM (read-out: mean): 2.99%

Cc1[nH]c(=O)c(C#N)cc1-c1ccncc1 [Milrinone]
inhibition at 5 µM [18]: 4.26%
inhibition at 5 µM [19]: 3.12%
inhibition at 5 µM [20]: 5.4%

CN(C)CCC=C1c2ccccc2C=Cc2ccccc21 [Cyclobenzaprine hydrochloride]
mean (LOPAC_screen_w_protease): 2.047
inhibition at 5 µM [1]: 3.03%
inhibition at 5 µM [2]: 1.06%

C[C@@H](NC(=O)/C(C#N)=C/c1ccc(O)c(O)c1)c1ccccc1 [Tyrphostin AG 527]
mean [21]: 2.942
Replicate_1 [22]: 4.113
Replicate_2 [23]: 1.771

CN1C2CCC1CC(NC(=O)c1nn(C)c3ccccc13)C2.O=C(O)/C=C\C(=O)O (stereo not drawn) [LY-278,584 maleate]
mean [6]: 4.776
Replicate_1 [7]: 3.942
Replicate_2 [8]: 5.61

Cl.Cl.Cl.Ic1ccc(N2CCN(Cc3c[nH]c4ncccc34)CC2)cc1 [L-750,667 trihydrochloride]
mean [6]: 4.601
Replicate_1 [7]: 3.085
Replicate_2 [8]: 6.117

Cc1cc(N)c2ccccc2[n+]1CCCCCCCCCCCCCC[n+]1c(C)cc(N)c2ccccc21.[I-].[I-] [Dequalinium analog, C-14 linker]
mean (LOPAC screen with protease) [15]: 11.1281
Replicate_1 (LOPAC screen with protease) [16]: 10.1675
Replicate_2 (LOPAC screen with protease) [17]: 12.0887

O=c1[nH]c2ccccc2c2ccccc12 [6(5H)-Phenanthridinone]
mean [24]: 2.579
Replicate_1 [25]: 3.064
Replicate_2 [26]: 2.0946

CCCN(CCc1ccccc1)C1CCc2c(O)cccc2C1.Cl (racemic) [(±)-PPHT hydrochloride]
mean (sheet LOPAC_screen_w_protease, LOPAC1280 at 5 µM, mean of two replicates): 1.126
Replicate_1 (sheet LOPAC_screen_w_protease, LOPAC1280 at 5 µM, replicate 1): 1.344
Replicate_2 (sheet LOPAC_screen_w_protease, LOPAC1280 at 5 µM, replicate 2): 0.9086

CN(C)CCOC(c1ccccc1)c1ccccc1 [Diphenhydramine hydrochloride]
inhibition at 5 µM [12]: 2.14%
inhibition at 5 µM [13]: 1.54%
mean (LOPAC_screen_w_protease) (LOPAC1280 primary screen with protease, 5 µM compound, mean of the two replicates): 1.841

CCN(CC)C(C)C(=O)N1c2ccccc2Sc2ccccc21.Cl (stereo not drawn)
mean [21]: 2.78
Replicate_1 [22]: 5.208
Replicate_2 [23]: 0.3523

C[C@@H]1O[C@@H](O[C@H]2C[C@@H](O)[C@]3(CO)[C@H]4[C@H](O)C[C@]5(C)[C@@H](C6=CC(=O)OC6)CC[C@]5(O)[C@@H]4CC[C@]3(O)C2)[C@H](O)[C@H](O)[C@H]1O [Ouabain]
inhibition at 5 µM (read-out: Replicate_1): 3.98%
inhibition at 5 µM (read-out: Replicate_2): 1.68%
inhibition at 5 µM (read-out: mean): 2.83%

CC(=O)O[C@H]1C[C@@]2(C)[C@@H](C[C@@H](O)[C@H]3[C@@]4(C)CC[C@@H](O)[C@@H](C)[C@@H]4CC[C@@]32C)/C1=C(\CCC=C(C)C)C(=O)[O-].[Na+] [Fusidic acid sodium]
mean [24]: 2.25
Replicate_1 [25]: 4.338
Replicate_2 [26]: 0.1614

NS(=O)(=O)c1cc2c(cc1Cl)NCNS2(=O)=O [Hydrochlorothiazide]
inhibition at 5 µM [27]: 2.22%
inhibition at 5 µM [28]: 3.63%
inhibition at 5 µM [29]: 0.799%

C=C(C)[C@H]1CN[C@H](C(=O)O)[C@H]1CC(=O)O [Kainic acid]
mean (LOPAC_screen_w_protease): 1.974
inhibition at 5 µM [1]: 1.88%
inhibition at 5 µM [2]: 2.07%

CC(C)[C@H](CO)Nc1nc(Nc2cccc(Cl)c2)c2ncn(C(C)C)c2n1 [Purvalanol A]
inhibition at 5 µM [27]: 2.33%
inhibition at 5 µM [28]: 2.6%
inhibition at 5 µM [29]: 2.06%

O=[N+]([O-])c1cc2nc(O)c(O)nc2cc1[N+](=O)[O-] [DNQX]
Replicate_1: 2.956
Replicate_2: 2.135
mean: 2.546

COc1ccc(NC(=O)c2ccc(-c3ccc(-c4noc(C)n4)cc3C)cc2)cc1N1CCN(C)CC1.Cl [GR 127935 hydrochloride]
mean [9]: 0.6456
Replicate_1 [10]: 0.5978
Replicate_2 [11]: 0.6934

CN(C)C(=O)Oc1cccc([N+](C)(C)C)c1 [Neostigmine bromide]
inhibition at 5 µM [18]: 5.51%
inhibition at 5 µM [19]: 4.9%
inhibition at 5 µM [20]: 6.13%

CCCCC1C(=O)N(c2ccccc2)N(c2ccccc2)C1=O [Phenylbutazone]
inhibition at 5 µM [18]: 6.15%
inhibition at 5 µM [19]: 6%
inhibition at 5 µM [20]: 6.3%

CCCn1c(=O)c2[nH]c(C3CCCC3)nc2n(CCCOC(=O)c2ccc(S(=O)(=O)F)cc2)c1=O [FSCPX]
mean (LOPAC screen with protease) [15]: 6.832
Replicate_1 (LOPAC screen with protease) [16]: 8.115
Replicate_2 (LOPAC screen with protease) [17]: 5.548
